Measured values from paper PMC7576608, “Mechanisms of telomerase inhibition by oxidized and therapeutic dNTPs” (Nature Communications, 2020).

Assays:
telomerase [1] = target: T1, telomerase (Homo sapiens, UniProt O14746); test: Direct telomerase assay in the absence or presence of POT1-TPP1 (processivity R1/2); format: biochemical; set-up: made in house; POT1: baculovirus-infected Sf9; TPP1-N: E. coli BL21(DE3) pLysS; details: analog substituted for its natural dNTP, other dNTPs at cellular concentration
Excerpt: Next we tested whether the telomerase processivity factor POT1–TPP1 modulates modified dNTP inhibition of telomerase. POT1 binds to the telomeric ssDNA overhang, requiring the minimum sequence of 5′-[…]-3′[38]. Inclusion of POT1-binding partner TPP1, increases the binding affinity for telomeric DNA ten-fold compared to POT1 alone. POT1–TPP1 recruits telomerase to telomeres in vivo[39], and greatly increases telomerase repeat processivity. Therefore, we reasoned that POT1–TPP1 may overcome inhibition by the modified dNTPs and enhance telomerase processivity. We conducted telomerase extension reactions with radiolabeled primer in the presence of POT1–TPP1, and used a primer with a single mutation ([…]; underlined G to C mutation)[40] to ensure POT1–TPP1 is positioned at the 5′ portion of the primer (Fig. 5). This provides a homogenous substrate for telomerase extension.
For these reactions, we replaced the natural dNTP with the modified dNTP analog, while the other dNTPs remained at cellular relevant concentrations.
Direct telomerase assays were conducted in the absence or presence of 500 nM POT1 and 500 nM TPP1, as indicated, and 5 nM ^32P-end labeled primer ([…]) designed to position POT1 at the 10 nt primer 5′ end. Reactions contained cellular-concentration dNTPs (lanes 1 and 2), except when the natural dNTP was substituted with the oxidized dNTP a or therapeutic dNTP b analog (lanes 3–8), as indicated. […] Letters on the right indicate template base; P indicates unextended 18-mer primer. c Processivity was calculated on the basis of total products normalized to loading control. Images are representative of, and data are shown as mean ± s.d. from 3 to 5 independent experiments. Source data are provided as a Source Data file.
(§1) The reactions were started by the addition of 3 μl of immunopurified telomerase eluent, incubated at 37 °C for 1 h, then terminated with 2 μl of […] and heat inactivated at 65 °C for 20 min. An equal volume of loading buffer (94% formamide, 0.1× TBE, 0.1% bromophenol blue, 0.1% xylene cyanol) was added to the reaction eluent. The samples were heat denatured for 10 min at 100 °C and loaded onto a 14% denaturing acrylamide gel (7 M urea, 1× TBE) and electrophoresed for 90 min at constant 38 W. Samples were imaged using a Typhoon phosphorimager (GE Healthcare). Percent primer extension was calculated with ImageQuant TL 8.2 by measuring the intensity of each product band and dividing by the total radioactivity in the lane or total products, as indicated in the figure legends.
The processivity was calculated as described[40],[67]. Repeat processivity from the direct telomerase extension assays was calculated as R1/2 (equivalent to the half-time for decay in an exponential time course), which represents the median length of DNA product formed, expressed in terms of number of telomere repeats. First, the total volume counts for each product band extend by one or more telomere repeats were obtained using Image Quant TL. The volume counts were then normalized by dividing by the number of radiolabeled guanosines incorporated into the extended products based on the number of repeats added, termed corrected volume (corr vol). The “percent left behind” (%LB) was calculated for each product band by summing the counts for that product band and for every product band below (shorter products), divided by the total counts for the lane, and then multiplied by 100. The natural log of (100−%LB) was calculated and then plotted vs. repeat number for each product length. A linear regression line was fit to the data to determine the slope of the line.

telomerase [2] = target: T1, telomerase; test: Telomerase extension after insertion of modified dNTP (percent of product terminated at each template position); format: biochemical; set-up: made in house; anti-FLAG immunopurification, eluted with 3xFLAG peptide; details: Mean
Description: Direct telomerase assays were conducted with 5 nM ^32P-end labeled primer a and d Primer 3 (AGGGTT)3, b Primer 1 (TTAGGG)3, or c Primer 2 […]. […] Products were separated on denaturing gels. Letters on the y-axis of the graph indicate the template base; P indicates unextended 18-mer primer. Graphs represent percent of product terminated at each template position as a function of total products. Images are representative of, and data are the mean ± s.d. from, three independent experiments. Source data are provided as a Source Date file.
as §1
Target sequence in this assay (O14746 whole entry): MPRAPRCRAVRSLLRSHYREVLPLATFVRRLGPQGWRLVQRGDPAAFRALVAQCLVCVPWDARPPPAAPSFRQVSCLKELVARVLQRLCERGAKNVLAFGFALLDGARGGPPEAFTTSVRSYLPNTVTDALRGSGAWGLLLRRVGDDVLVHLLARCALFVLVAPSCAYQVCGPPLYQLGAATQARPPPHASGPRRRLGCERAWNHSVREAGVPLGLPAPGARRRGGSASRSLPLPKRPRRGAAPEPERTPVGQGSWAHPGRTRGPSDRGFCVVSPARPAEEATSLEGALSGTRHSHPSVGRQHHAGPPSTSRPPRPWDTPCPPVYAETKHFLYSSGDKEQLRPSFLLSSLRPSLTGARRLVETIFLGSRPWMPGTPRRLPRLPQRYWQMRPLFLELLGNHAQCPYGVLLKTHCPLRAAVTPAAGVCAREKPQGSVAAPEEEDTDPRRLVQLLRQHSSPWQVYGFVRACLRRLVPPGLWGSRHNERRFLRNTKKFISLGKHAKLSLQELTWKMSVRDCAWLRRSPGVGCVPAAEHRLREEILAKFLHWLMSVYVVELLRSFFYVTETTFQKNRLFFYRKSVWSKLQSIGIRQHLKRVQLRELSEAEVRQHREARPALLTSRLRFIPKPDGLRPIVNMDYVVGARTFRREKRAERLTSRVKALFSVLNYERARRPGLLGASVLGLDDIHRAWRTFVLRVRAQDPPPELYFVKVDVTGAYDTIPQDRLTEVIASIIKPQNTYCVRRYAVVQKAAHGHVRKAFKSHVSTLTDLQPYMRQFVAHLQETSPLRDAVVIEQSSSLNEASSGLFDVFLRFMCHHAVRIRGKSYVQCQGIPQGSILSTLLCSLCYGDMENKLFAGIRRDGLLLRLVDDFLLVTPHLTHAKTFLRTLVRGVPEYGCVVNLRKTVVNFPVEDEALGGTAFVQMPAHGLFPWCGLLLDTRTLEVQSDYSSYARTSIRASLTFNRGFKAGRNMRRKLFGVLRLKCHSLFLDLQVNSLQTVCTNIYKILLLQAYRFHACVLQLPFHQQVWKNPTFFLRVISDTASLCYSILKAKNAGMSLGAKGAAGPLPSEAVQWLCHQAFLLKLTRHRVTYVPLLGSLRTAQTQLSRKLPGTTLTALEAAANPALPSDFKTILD

[3] = 500 nM POT1 and 500 nM TPP1, Mean
[4] = 500 nM POT1 and 500 nM TPP1, n1-n3

Cc1cn([C@H]2C[C@H](N=[N+]=[N-])[C@@H](CO[P@](=O)(O)O[P@](=O)(O)OP(=O)(O)O)O2)c(=O)[nH]c1=O [AZT-TP]
Processivity R 1/2 (telomerase [1]; [3]): 0.00
Processivity R 1/2 (telomerase [1]; [4]): 0.00
Processivity R 1/2 (telomerase [1]; Control (no POT1-TPP1), Mean): 0.00
Processivity R 1/2 (telomerase [1]; Control (no POT1-TPP1), n1-n3): 0.00

Nc1ncnc2c1ncn2C1CC(O)C(COP(=O)(O)OP(=O)(O)OP(=O)(O)O)O1 (centres unmarked) [dATP]
Percent of Total Product (telomerase [2]; Fig 4a, Primer 3, 50 μM each dTTP, dGTP and dATP or 2-OH-dATP, terminated at rA3): 2.35%
Percent of Total Product (telomerase [2]; Fig 4a, Primer 3, 50 μM each dTTP, dGTP and dATP or 2-OH-dATP, terminated at rA4): 1.56%
Percent of Total Product (telomerase [2]; Fig 4a, Primer 3, 50 μM each dTTP, dGTP and dATP or 2-OH-dATP, terminated at rC1): 1.47%
Percent of Total Product (telomerase [2]; Fig 4a, Primer 3, 50 μM each dTTP, dGTP and dATP or 2-OH-dATP, terminated at rC2): 0.77%
Percent of Total Product (telomerase [2]; Fig 4a, Primer 3, 50 μM each dTTP, dGTP and dATP or 2-OH-dATP, terminated at rC6): 8.96%
Percent of Total Product (telomerase [2]; Fig 4a, Primer 3, 50 μM each dTTP, dGTP and dATP or 2-OH-dATP, terminated at rU5 (first)): 4.92%
Percent of Total Product (telomerase [2]; Fig 4a, Primer 3, 50 μM each dTTP, dGTP and dATP or 2-OH-dATP, terminated at rU5 (second, after translocation)): 0.73%

Nc1nc2c(ncn2C2CC(O)C(COP(=O)(O)OP(=O)(O)OP(=O)(O)O)O2)c(=O)[nH]1 (centres unmarked) [dGTP]
Percent of Total Product (telomerase [2]; Fig 4b, Primer 1 (TTAGGG)3, 50 μM each dATP, dTTP and dGTP or 6-thio-dGTP, terminated at rA3): 7.65%
Percent of Total Product (telomerase [2]; Fig 4b, Primer 1, 50 μM each dATP, dTTP and dGTP or 6-thio-dGTP, terminated at rA4): 5.26%
Percent of Total Product (telomerase [2]; Fig 4b, Primer 1, 50 μM each dATP, dTTP and dGTP or 6-thio-dGTP, terminated at rC1): 0.66%
Percent of Total Product (telomerase [2]; Fig 4b, Primer 1, 50 μM each dATP, dTTP and dGTP or 6-thio-dGTP, terminated at rC2): 0.40%
Percent of Total Product (telomerase [2]; Fig 4b, Primer 1, 50 μM each dATP, dTTP and dGTP or 6-thio-dGTP, terminated at rC6): 4.56%
Percent of Total Product (telomerase [2]; Fig 4b, Primer 1, 50 μM each dATP, dTTP and dGTP or 6-thio-dGTP, terminated at rU5): 0.95%
Percent of Total Product (telomerase [2]; Fig 4c, Primer 2, 50 μM each dATP, dTTP and dGTP or 6-thio-dGTP, terminated at rA3): 5.15%
Percent of Total Product (telomerase [2]; Fig 4c, Primer 2, 50 μM each dATP, dTTP and dGTP or 6-thio-dGTP, terminated at rA4): 4.76%
Percent of Total Product (telomerase [2]; Fig 4c, Primer 2, 50 μM each dATP, dTTP and dGTP or 6-thio-dGTP, terminated at rC1): 7.39%
Percent of Total Product (telomerase [2]; Fig 4c, Primer 2, 50 μM each dATP, dTTP and dGTP or 6-thio-dGTP, terminated at rC2): 1.97%
Percent of Total Product (telomerase [2]; Fig 4c, Primer 2, 50 μM each dATP, dTTP and dGTP or 6-thio-dGTP, terminated at rC6): 6.22%
Percent of Total Product (telomerase [2]; Fig 4c, Primer 2, 50 μM each dATP, dTTP and dGTP or 6-thio-dGTP, terminated at rU5): 1.19%
Percent of Total Product (telomerase [2]; Fig 4d, Primer 3 (AGGGTT)3, 50 μM each dATP, dTTP and dGTP or 6-thio-dGTP, terminated at rU5): 4.50%
Percent of Total Product (telomerase [2]; Fig 4d, Primer 3, 50 μM each dATP, dTTP and dGTP or 6-thio-dGTP, terminated at rA3): 2.21%
Percent of Total Product (telomerase [2]; Fig 4d, Primer 3, 50 μM each dATP, dTTP and dGTP or 6-thio-dGTP, terminated at rC1): 1.49%
Percent of Total Product (telomerase [2]; Fig 4d, Primer 3, 50 μM each dATP, dTTP and dGTP or 6-thio-dGTP, terminated at rC2): 0.72%
Percent of Total Product (telomerase [2]; Fig 4d, Primer 3, 50 μM each dATP, dTTP and dGTP or 6-thio-dGTP, terminated at rC6): 8.67%

O=c1[nH]cnc2c1ncn2C1CCC(COP(=O)(O)OP(=O)(O)OP(=O)(O)O)O1 (centres unmarked) [ddITP]
Processivity R 1/2 (telomerase [1]; [3]): 0.00
Processivity R 1/2 (telomerase [1]; [4]): 0.00
Processivity R 1/2 (telomerase [1]; Control (no POT1-TPP1), Mean): 0.00
Processivity R 1/2 (telomerase [1]; Control (no POT1-TPP1), n1-n3): 0.00
